Experiments:
velvetleaf = experiment: Test B pre/postemergence velvetleaf; type: in vivo, Abutilon theophrasti; conditions: for Plant response rating, Velvetleaf: Rate 250 g/ha
In short: (§1)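 Test chemicals in a non-phytotoxic solvent mixture with surfactant were sprayed preemergence onto planted seeds and postemergence onto plants 2 to 18 cm tall (1- to 4-leaf stage). After twelve to sixteen days in a greenhouse, injury was visually rated against untreated controls from 0 (no effect) to 10 (complete control).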

purple nutsedge = experiment: Test B pre/postemergence purple nutsedge; type: in vivo, Cyperus rotundus
In short: as §1

rape = experiment: Test B pre/postemergence rape; type: in vivo, Brassica napus
In short: as §1

corn = experiment: Test B pre/postemergence corn; type: in vivo, Zea mays
In short: as §1

wheat = experiment: Test B pre/postemergence wheat; type: in vivo, Triticum aestivum; conditions: for Plant response rating, Wheat: Rate 250 g/ha
In short: as §1

morningglory = experiment: Test B pre/postemergence morningglory; type: in vivo, Ipomoea hederacea
In short: as §1

blackgrass = experiment: Test B pre/postemergence blackgrass; type: in vivo, Alopecurus myosuroides
In short: as §1

wild oat = experiment: Test B pre/postemergence wild oat; type: in vivo, Avena fatua; conditions: for Plant response rating, Wild oats: Rate 250 g/ha
In short: as §1

soybean = experiment: Test B pre/postemergence soybean; type: in vivo, Glycine max
In short: as §1

surinam grass = experiment: Test B pre/postemergence surinam grass; type: in vivo, Brachiaria decumbens
In short: as §1

pigweed = experiment: Test B pre/postemergence pigweed; type: in vivo, Amaranthus retroflexus
In short: as §1

giant foxtail = experiment: Test B pre/postemergence giant foxtail; type: in vivo, Setaria faberii
In short: as §1

cocklebur = experiment: Test B pre/postemergence cocklebur; type: in vivo, Xanthium strumarium
In short: as §1

crabgrass = experiment: Test B pre/postemergence crabgrass; type: in vivo, Digitaria sanguinalis
In short: as §1

bedstraw = experiment: Test B pre/postemergence bedstraw; type: in vivo, Galium aparine
In short: as §1

[1] = Postemergence, Rate 125 g/ha, scale of 0 to 10 where 0 is no effect and 10 is complete control
[2] = Preemergence, Rate 62 g/ha, scale 0 to 10 (0 no effect, 10 complete control)
[3] = Preemergence, Rate 125 g/ha, 0 is no effect, 10 is complete control
[4] = Preemergence, scale of 0 to 10 where 0 is no effect and 10 is complete control
[5] = Preemergence, Rate 500 g/ha, scale 0 to 10 (0 no effect, 10 complete control)
[6] = Rate 62 g/ha, Postemergence, scale of 0 to 10 where 0 is no effect and 10 is complete control
[7] = Postemergence, scale 0 to 10, 0 is no effect, 10 is complete control
[8] = Rate 500 g/ha, Postemergence, scale 0 to 10, 0 no effect, 10 complete control
[9] = Postemergence, Rate 250 g/ha, scale 0 to 10, 0 no effect, 10 complete control
[10] = Preemergence, Rate 125 g/ha, scale 0 to 10 (0 no effect, 10 complete control)
[11] = Preemergence, Rate 250 g/ha, scale of 0 to 10 where 0 is no effect and 10 is complete control
[12] = Rate 250 g/ha, Postemergence, scale 0 to 10, 0 is no effect, 10 is complete control
[13] = Postemergence, Rate 62 g/ha, scale 0 to 10, 0 is no effect, 10 is complete control
[14] = Rate 125 g/ha, Postemergence, scale 0 to 10, 0 no effect, 10 complete control

CCn1c(=O)on(C(=O)N(c2ccccc2)C(C)C)c1=O [Compound 117]
5: Corn plant response rating (corn; [1]) | Soybean plant response rating (soybean; [1]) | Plant response rating, Soybean (soybean; [12])
6: Velvetleaf plant response rating (velvetleaf; [2]) | Plant response rating, Velvetleaf (velvetleaf; [7]) | Rape plant response rating (rape; [2]) | Rape plant response rating (rape; [8]) | Corn plant response rating (corn; [9]) | Wheat plant response rating (wheat; [1]) | Plant response rating, Wheat (wheat; [7]) | Morningglory plant response rating (morningglory; [5]) | Wild oats plant response rating (0 to 10 scale) (wild oat; [3]) | B. signalgrass plant response rating (surinam grass; [13]) | B. signalgrass plant response rating (surinam grass; [2]) | Redroot pigweed plant response rating (pigweed; [8])
3: Velvetleaf plant response rating (velvetleaf; [1]) | Plant response rating, Nutsedge (purple nutsedge; [11]) | Wild oats plant response rating (wild oat; [1]) | Wild oats plant response rating (wild oat; [2])
0: Velvetleaf plant response rating (velvetleaf; [6]) | Nutsedge plant response rating (purple nutsedge; [2]) | Plant response rating, Nutsedge (purple nutsedge; [10]) | Rape plant response rating (rape; [1]) | Rape plant response rating (rape; [6]) | Corn plant response rating (corn; [2]) | Corn plant response rating (corn; [6]) | Morningglory plant response rating (morningglory; [2]) | Plant response rating, Morningglory (morningglory; [10]) | Wild oats plant response rating (wild oat; [6]) | Soybean plant response rating (soybean; [2]) | Redroot pigweed plant response rating (pigweed; [1]) | Redroot pigweed plant response rating (pigweed; [6]) | Plant response rating, Redroot pigweed (pigweed; [12]) | Cocklebur plant response rating (cocklebur; [1]) | Cocklebur plant response rating (cocklebur; [9]) | Cocklebur plant response rating (cocklebur; [2]) | Plant response rating, Cocklebur (cocklebur; [10]) | Plant response rating, Cocklebur (cocklebur; [11]) | Cocklebur plant response rating (cocklebur; [5]) | Cocklebur plant response rating (cocklebur; [6]) | Bedstraw plant response rating (bedstraw; [13]) | Bedstraw plant response rating (bedstraw; [2]) | Plant response rating, Bedstraw (bedstraw; [10]) | Plant response rating, Bedstraw (bedstraw; [11]) | Bedstraw plant response rating (bedstraw; [5]) | Bedstraw plant response rating (bedstraw; [14])
1: Cocklebur plant response rating (cocklebur; [8])
8: Velvetleaf plant response rating (0 to 10 scale) (velvetleaf; [3]) | Velvetleaf plant response rating (velvetleaf; [8]) | Wheat plant response rating (wheat; [5]) | Wheat plant response rating (wheat; [8]) | Blackgrass plant response rating (blackgrass; [2]) | Plant response rating, Blackgrass (blackgrass; [10]) | Blackgrass plant response rating (blackgrass; [6]) | Wild oats plant response rating (wild oat; [8]) | Plant response rating, Soybean (soybean; [10]) | Plant response rating, Soybean (soybean; [11]) | B. signalgrass plant response rating (surinam grass; [14])
10: Plant response rating, Velvetleaf (velvetleaf; [4]) | Velvetleaf plant response rating (velvetleaf; [5]) | Plant response rating, Rape (rape; [10]) | Plant response rating, Rape (rape; [11]) | Rape plant response rating (rape; [5]) | Morningglory plant response rating (morningglory; [8]) | Plant response rating, Blackgrass (blackgrass; [11]) | Blackgrass plant response rating (blackgrass; [5]) | Plant response rating, Wild oats (wild oat; [4]) | Wild oats plant response rating (wild oat; [5]) | B. signalgrass plant response rating (surinam grass; [5]) | Plant response rating, Redroot pigweed (pigweed; [10]) | Plant response rating, Redroot pigweed (pigweed; [11]) | Redroot pigweed plant response rating (pigweed; [5]) | Giant foxtail plant response rating (giant foxtail; [2]) | Plant response rating, Giant foxtail (giant foxtail; [10]) | Plant response rating, Giant foxtail (giant foxtail; [11]) | Giant foxtail plant response rating (giant foxtail; [5]) | Plant response rating, Crabgrass (crabgrass; [10]) | Plant response rating, Crabgrass (crabgrass; [11]) | Crabgrass plant response rating (crabgrass; [5])
7: Nutsedge plant response rating (purple nutsedge; [1]) | Nutsedge plant response rating (purple nutsedge; [9]) | Nutsedge plant response rating (purple nutsedge; [5]) | Nutsedge plant response rating (purple nutsedge; [8]) | Plant response rating, Corn (corn; [11]) | Corn plant response rating (corn; [8]) | Plant response rating, Wheat (wheat; [4]) | Morningglory plant response rating (morningglory; [1]) | Morningglory plant response rating (morningglory; [9]) | Soybean plant response rating (soybean; [8])
4: Wheat plant response rating (0 to 10 scale) (wheat; [3]) | Plant response rating, Wild oats (wild oat; [7])
9: Corn plant response rating (corn; [5]) | Blackgrass plant response rating (blackgrass; [1]) | Blackgrass plant response rating (blackgrass; [9]) | Blackgrass plant response rating (blackgrass; [8]) | Soybean plant response rating (soybean; [5]) | B. signalgrass plant response rating (surinam grass; [9]) | Plant response rating, B. signalgrass (surinam grass; [10]) | Plant response rating, B. signalgrass (surinam grass; [11]) | B. signalgrass plant response rating (surinam grass; Rate 500 g/ha, Postemergence, scale of 0 to 10 where 0 is no effect and 10 is complete control) | Redroot pigweed plant response rating (pigweed; [2]) | Giant foxtail plant response rating (giant foxtail; [1]) | Giant foxtail plant response rating (giant foxtail; [9]) | Giant foxtail plant response rating (giant foxtail; [6]) | Giant foxtail plant response rating (giant foxtail; [8]) | Crabgrass plant response rating (crabgrass; [1]) | Crabgrass plant response rating (crabgrass; [9]) | Crabgrass plant response rating (crabgrass; [2]) | Crabgrass plant response rating (crabgrass; [6]) | Crabgrass plant response rating (crabgrass; [8])
2: Nutsedge plant response rating (purple nutsedge; [6]) | Rape plant response rating (rape; [9]) | Plant response rating, Corn (corn; [10]) | Wheat plant response rating (wheat; [2]) | Wheat plant response rating (wheat; [6]) | Plant response rating, Morningglory (morningglory; [11]) | Morningglory plant response rating (morningglory; [6]) | Soybean plant response rating (soybean; [6]) | Bedstraw plant response rating (bedstraw; [9])
